Source: patent US12529162B2, “Method of screening for peptides capable of binding to a ubiquitin protein ligase (E3)” (Phoremost Limited, priority 2019, dated 2026)
Entries after “also recorded” stand apart in the source; their conditions may differ. Where two headings read alike, the source gives them in different places.

Columns and labels:
TNKS2 (residues 20-800) = TNKS2 (residues 20-800) (Homo sapiens, UniProt Q9H2K2); details: read-out: affinity of binding to TNKS2; fluorescence polarization; Guettler et al., 2011; cited from earlier work
TNKS2 = target: T1, TNKS2 (Homo sapiens, UniProt Q9H2K2); experiment: Western blot of TNKS2 levels in HEK293A cells transfected with PROTAC-encoding plasmids; type: cell-based; details: 20 hours after transfection, actin loading control
T1 construct: endogenous in cells; host or cells: HEK293A
T1 sequence (Q9H2K2 1-1166): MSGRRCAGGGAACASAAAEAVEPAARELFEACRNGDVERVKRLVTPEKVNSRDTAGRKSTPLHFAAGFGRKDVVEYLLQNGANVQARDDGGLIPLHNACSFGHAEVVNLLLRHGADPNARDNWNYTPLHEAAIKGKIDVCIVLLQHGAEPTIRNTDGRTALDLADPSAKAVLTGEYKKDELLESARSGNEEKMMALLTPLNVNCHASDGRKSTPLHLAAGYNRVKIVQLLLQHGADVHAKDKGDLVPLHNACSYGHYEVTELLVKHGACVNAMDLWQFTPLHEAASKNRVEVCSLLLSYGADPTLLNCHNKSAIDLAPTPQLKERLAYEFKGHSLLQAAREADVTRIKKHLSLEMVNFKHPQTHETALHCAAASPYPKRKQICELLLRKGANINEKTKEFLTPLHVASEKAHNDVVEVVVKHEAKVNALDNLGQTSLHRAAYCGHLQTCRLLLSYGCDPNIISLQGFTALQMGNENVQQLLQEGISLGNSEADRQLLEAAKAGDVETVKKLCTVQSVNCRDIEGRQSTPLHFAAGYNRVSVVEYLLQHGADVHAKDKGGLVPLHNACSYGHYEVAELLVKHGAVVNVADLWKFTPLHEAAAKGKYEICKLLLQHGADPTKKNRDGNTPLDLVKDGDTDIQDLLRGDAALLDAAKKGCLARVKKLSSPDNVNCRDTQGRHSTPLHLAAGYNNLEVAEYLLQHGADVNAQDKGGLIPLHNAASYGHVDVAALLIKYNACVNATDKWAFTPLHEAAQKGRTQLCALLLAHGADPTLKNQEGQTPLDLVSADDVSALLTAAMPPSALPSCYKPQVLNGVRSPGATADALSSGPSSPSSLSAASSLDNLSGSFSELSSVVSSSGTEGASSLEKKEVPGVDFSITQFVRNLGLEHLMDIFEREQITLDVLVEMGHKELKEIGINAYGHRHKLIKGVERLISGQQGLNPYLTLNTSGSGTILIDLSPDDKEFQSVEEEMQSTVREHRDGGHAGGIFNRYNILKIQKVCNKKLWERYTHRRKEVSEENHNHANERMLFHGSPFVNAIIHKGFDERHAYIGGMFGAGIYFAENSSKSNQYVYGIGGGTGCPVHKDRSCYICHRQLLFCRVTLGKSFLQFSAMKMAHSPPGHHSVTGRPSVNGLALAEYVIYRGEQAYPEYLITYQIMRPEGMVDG
Excerpt: A DNA construct encoding for the TNKS2 binding sequence (3BP2^410-425) at the N-terminus as set out in SEQ ID NO: 1, a GGGGSS linker as set out in SEQ ID NO: 3, and the E3 binding sequence (ALAPYIP) as set out in SEQ ID NO: 2, at the C-terminus was cloned into pMOST25 vector (the full PROTAC as set out in SEQ ID NO: 4). pMOST25 is a lentiviral vector based on pCDH EF1a (System Biosciences) where the promoter was swapped for CMV and the MCS replaced by a new cassette with flanking NGS primer sites. Control constructs which (i) lacked the ALAPYIP E3 binding sequence (3BP2^410-425) as set out in SEQ ID NO: 5 or (ii) contained a double mutation which is known to disrupt HIF1α-VHL interaction (3BP2^410-425-ALAAAIP) as set out in SEQ ID NO: 6 were similarly cloned (Table 1). Neither control construct can bind to the E3 ligase and therefore there should be no change in the level of TNKS2 when cells are transduced with these. HEK293A cells were collected 20 hours after transfection, and levels of TNKS2 target protein were assessed by Western Blot (FIG. 2). Membranes were probed with primary antibodies against TNKS2 (Abcam ab155545), or actin (Abcam ab179467) as a loading control. […]
20 hours after transfection, cells were harvested and analyzed by Western Blotting. […]

GFP [1] = details: HEK293A
Method: Plasmids encoding for GFP alone (control), or GFP tagged with one of the validated candidate peptide hits from the screening method, Hit (#1) (see Example 5) or Hit (#2), were transduced into HEK293A cells using lentivirus. Cells expressing tagged GFP were either untreated (DMSO treatment only) or treated with the proteasome inhibitor MG132 for 4 hours, after which they were harvested and analyzed by Western Blotting. Membranes were probed with primary antibodies against GFP (CST #2555), or actin (Abcam ab179467) as a loading control. After the addition of HRP-conjugated secondary antibodies, protein signals were detected by chemiluminescence (FIG. 9).

GFP [2] = details: HEK293A; remark: listed apart in the source
Method: GFP was used as the target (test protein) in this study.
GFP-peptide expressing cells were either untreated (DMSO treatment only; ‘Peptide+vehicle’) or treated with the proteasome inhibitor MG132 (10 μM in DMSO, for 4 h) (‘Peptide+MG132’), and were then analyzed by FACS for GFP levels (FIG. 8).

LPHLQRSPPDGQSFRS
Kd (TNKS2 (residues 20-800)): 500 nM

MGLPHLQRSPPDGQSFRSLEGGGGSSAALAPYIP (3BP2(410-425)- ALAPYIP peptide) [3BP2^410-425-ALAPYIP]
levels of TNKS2 by Western blot (TNKS2): led to TNKS2 degradation; also recorded: markedly decreased levels of TNKS2

MGLPHLQRSPPDGQSFRSLEGGGGSSLDPETGEYL (3BP2(410-425) - LDPETGEYL peptide) [3BP2^410-425-LDPETGEYL]
levels of TNKS2 by Western blot (TNKS2): unaffected

MQNNPLTSGLEPSPPQCDYIRPSLTGKFAGNPWYYGKVTRHQAEMA [Hit (#1)]
GFP levels by Western blot (GFP [1]; MG132 treated 4 hours): GFP levels were restored | GFP levels by Western blot compared to GFP control (GFP [1]; absence of MG132): almost complete depletion of GFP | GFP levels by FACS compared to no peptide control (GFP [2]; Peptide+MG132 (10 μM, 4 h)): restored GFP levels back to that of the ‘no peptide control’ cells | GFP levels by FACS compared to no peptide control (GFP [2]; Peptide+vehicle (DMSO only)): marked degradation of GFP
